# Test results reported in ChEMBL document CHEMBL1201862, “PubChem BioAssay data set” (2004).
# The source made the active and inactive calls. Rule as the data show it, for most assays here: actives have a measured EC50 and inactives only a lower limit.
# Legend:
# [1] = inhibitors of firefly luciferase expression or activity, dose response, H4 neuroglioma cells, luminescence (AID 1990); format: functional, cell-based
# [2] = Luminescence Cell-Based Dose Response HTS to Identify Inhibitors of 5'UTR Stem-Loop Driven Prion Protein mRNA Translation in H4 Neuroglioblastoma Cells. [Related pubchem assays: 1827 (Project Summary), 1813 (Primary HTS)]; format: functional
# [3] = inhibitors of SNCA 5'UTR-driven reporter translation, confirmation, H4 neuroglioma cells, luminescence (AID 1988); format: functional, cell-based
# [4] = inhibitors of intracellular T. cruzi replication, confirmation, NIH3T3 host cells, beta-gal luminescence (AID 2044); format: functional, cell-based;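 also: intracellular parasites grown in NIH/3T3 mouse fibroblasts as host cells; luminescent beta-galactosidase reporter signal from transgenic T. cruzi replicating inside host cells; inhibitors lower the luminescence signal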
# [5] = cytotoxicity toward NIH3T3 fibroblasts, dose response, counter-screen, cell-based, ATP luminescence, mouse fibroblasts (AID 2010); format: functional;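 also: cells exposed to compound for about 90 hours before reading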
# [6] = Luminescence Cell-Based Dose Retest to Confirm Inhibitors of Cancer Stem Cells. [Related pubchem assays (depositor defined):AID2717, AID2721]; format: functional; settings: Homo sapiens
# [7] = tested on: INS1; experiment: beta cell apoptosis inhibitors, cytokine rescue, dose response, luminescence, retest (AID 449756); format: functional, cell-based; settings: Rattus norvegicus;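 also: cell death triggered by IL-1 beta plus TNF-alpha plus IFN-gamma mixture; protective hits raise ATP signal compared with cytokine alone wells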
# [8] = biological target: Luciferin 4-monooxygenase (Photinus pyralis, UniProt P08659); experiment: firefly luciferase enzyme inhibitors, dose response, biochemical, luminescence (AID 1891)
# Chain of Luciferin 4-monooxygenase (P08659 whole entry): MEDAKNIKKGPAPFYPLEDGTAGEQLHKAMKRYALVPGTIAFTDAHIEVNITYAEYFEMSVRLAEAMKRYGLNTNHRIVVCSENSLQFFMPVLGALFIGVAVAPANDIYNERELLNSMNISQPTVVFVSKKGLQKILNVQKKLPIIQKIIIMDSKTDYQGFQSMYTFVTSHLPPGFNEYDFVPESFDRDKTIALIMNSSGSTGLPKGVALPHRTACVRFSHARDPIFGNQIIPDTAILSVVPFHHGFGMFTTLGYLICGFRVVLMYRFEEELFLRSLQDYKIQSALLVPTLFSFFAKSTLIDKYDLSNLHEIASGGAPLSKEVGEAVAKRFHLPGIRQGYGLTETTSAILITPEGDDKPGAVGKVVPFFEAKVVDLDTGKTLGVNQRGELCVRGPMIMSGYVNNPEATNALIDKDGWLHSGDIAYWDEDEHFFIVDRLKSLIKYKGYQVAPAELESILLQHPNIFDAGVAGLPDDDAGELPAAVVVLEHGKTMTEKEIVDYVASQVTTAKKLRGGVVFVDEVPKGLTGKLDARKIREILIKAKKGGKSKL
# [9] = Luminescence Cell-Based Dose Confirmation HTS to Identify Inhibitors of Platelet Dense Granule Release. [Related pubchem assays: 1663 (Primary HTS), 1678 (Summary of Project)]; format: functional
# [10] = biological target: T1, RNA-binding protein pos-1 (Caenorhabditis elegans, UniProt G5EF15); experiment: inhibitors of POS-1/mex-3 RNA binding, dose response, biochemical, fluorescence polarization (AID 1964);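 also: purified POS-1 fused to maltose binding protein made in E. coli; potency of compounds blocking POS-1 binding to fluorescent RNA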
# T1 sequence (G5EF15 whole entry): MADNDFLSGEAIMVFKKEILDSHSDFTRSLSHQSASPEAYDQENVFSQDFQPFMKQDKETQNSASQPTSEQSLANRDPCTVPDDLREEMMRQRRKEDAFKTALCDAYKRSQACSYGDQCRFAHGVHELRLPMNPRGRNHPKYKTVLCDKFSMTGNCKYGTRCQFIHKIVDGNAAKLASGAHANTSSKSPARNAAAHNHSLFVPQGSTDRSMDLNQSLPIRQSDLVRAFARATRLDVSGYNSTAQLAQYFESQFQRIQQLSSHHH
# [11] = biological target: T2, Zinc finger protein mex-5 (Caenorhabditis elegans, UniProt Q9XUB2); experiment: MEX-5/TCR-2 RNA interaction inhibitors, dose response, biochemical, C. elegans, fluorescence polarization (AID 1960)
# T2 sequence (Q9XUB2 whole entry): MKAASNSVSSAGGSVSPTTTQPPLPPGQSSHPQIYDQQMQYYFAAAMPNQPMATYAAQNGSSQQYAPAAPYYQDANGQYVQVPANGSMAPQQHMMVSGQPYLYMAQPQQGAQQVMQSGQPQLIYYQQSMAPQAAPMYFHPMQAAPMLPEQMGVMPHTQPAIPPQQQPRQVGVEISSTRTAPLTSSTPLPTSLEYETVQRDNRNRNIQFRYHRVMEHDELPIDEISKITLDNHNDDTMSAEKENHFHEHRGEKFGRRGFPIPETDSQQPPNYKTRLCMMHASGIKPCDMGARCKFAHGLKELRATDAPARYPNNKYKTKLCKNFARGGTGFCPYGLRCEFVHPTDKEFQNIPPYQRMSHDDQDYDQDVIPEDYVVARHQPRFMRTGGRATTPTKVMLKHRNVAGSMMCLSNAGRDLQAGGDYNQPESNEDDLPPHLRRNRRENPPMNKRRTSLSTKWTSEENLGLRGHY
# [12] = P. falciparum Dd2 growth inhibitors, dose response, SYBR Green, cherry-picked samples (AID 1159567); format: functional, cell-based
# [13] = biological target: T3, Polyadenylate-binding protein 1 (Homo sapiens, UniProt P11940); experiment: PABP1 MLLE–PAM2 interaction inhibitors, dose response, miRNA deadenylation inhibitor project, biochemical, fluorescence polarization, Cy5-PAM2 peptide, secondary (AID 602260); format: functional; settings: read-out: IC50_Mean
# T3 sequence (P11940 whole entry): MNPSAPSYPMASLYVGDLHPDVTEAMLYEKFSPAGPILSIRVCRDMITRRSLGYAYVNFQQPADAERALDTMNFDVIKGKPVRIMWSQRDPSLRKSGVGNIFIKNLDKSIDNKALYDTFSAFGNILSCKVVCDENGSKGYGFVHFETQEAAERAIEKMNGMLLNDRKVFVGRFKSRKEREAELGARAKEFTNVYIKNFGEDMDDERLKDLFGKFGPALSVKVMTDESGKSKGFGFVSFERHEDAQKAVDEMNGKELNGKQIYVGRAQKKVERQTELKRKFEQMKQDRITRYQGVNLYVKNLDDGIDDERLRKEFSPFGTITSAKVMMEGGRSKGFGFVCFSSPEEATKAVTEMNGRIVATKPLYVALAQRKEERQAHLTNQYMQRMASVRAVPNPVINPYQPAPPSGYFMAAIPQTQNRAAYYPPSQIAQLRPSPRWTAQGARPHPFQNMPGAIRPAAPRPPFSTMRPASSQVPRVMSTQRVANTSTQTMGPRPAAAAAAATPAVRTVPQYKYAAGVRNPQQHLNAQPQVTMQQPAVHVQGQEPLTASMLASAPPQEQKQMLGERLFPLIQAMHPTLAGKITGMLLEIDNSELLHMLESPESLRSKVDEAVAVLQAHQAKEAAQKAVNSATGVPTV
# [14] = biological target: T3, Polyadenylate-binding protein 1; experiment: PABP1 MLLE–PAM2 binding inhibitor potency, dose response, biochemical, fluorescence polarization, FITC-PAM2 peptide (AID 602259); format: functional; settings: read-out: IC50_Mean
# [15] = biological target: Nonstructural protein 1 (Influenza A virus, UniProt Q194T2); format: functional, Influenza A virus (A/California/07/2009(H1N1))
# Chain of Nonstructural protein 1 (Q194T2 whole entry): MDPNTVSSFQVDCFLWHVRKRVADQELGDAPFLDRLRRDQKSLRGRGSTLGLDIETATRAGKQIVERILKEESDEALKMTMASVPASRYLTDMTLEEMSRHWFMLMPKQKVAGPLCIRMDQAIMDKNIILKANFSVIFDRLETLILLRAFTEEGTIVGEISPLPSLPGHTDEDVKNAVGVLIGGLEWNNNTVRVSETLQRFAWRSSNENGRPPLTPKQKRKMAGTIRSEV
# [16] = biological target: T4, Replicative DNA helicase DnaB (Mycobacterium tuberculosis, UniProt P9WMR3); experiment: DnaB intein splicing inhibitors, dose response, biochemical, cell-free fluorescence (AID 449749); format: functional
# T4 sequence (P9WMR3 whole entry): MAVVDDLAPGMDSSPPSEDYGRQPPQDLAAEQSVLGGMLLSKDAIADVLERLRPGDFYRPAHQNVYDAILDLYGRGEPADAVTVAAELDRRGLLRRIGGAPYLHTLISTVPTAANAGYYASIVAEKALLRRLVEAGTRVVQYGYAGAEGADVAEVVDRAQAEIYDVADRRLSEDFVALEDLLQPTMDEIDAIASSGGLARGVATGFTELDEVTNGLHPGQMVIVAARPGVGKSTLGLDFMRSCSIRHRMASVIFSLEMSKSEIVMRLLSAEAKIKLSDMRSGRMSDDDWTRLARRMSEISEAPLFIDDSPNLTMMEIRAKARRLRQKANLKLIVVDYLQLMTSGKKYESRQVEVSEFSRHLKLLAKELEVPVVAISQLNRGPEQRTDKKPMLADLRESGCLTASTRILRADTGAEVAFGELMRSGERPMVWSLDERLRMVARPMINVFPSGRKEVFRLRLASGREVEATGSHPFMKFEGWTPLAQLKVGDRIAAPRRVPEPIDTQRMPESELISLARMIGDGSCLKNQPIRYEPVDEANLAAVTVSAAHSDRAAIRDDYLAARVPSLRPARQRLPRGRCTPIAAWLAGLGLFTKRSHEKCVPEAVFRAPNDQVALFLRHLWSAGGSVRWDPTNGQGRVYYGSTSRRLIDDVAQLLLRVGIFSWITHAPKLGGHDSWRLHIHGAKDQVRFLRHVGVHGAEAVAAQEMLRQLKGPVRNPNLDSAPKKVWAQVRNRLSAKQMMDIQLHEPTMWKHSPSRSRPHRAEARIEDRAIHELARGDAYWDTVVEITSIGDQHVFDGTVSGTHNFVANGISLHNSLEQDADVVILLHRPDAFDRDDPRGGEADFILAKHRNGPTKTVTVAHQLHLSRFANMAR
# [17] = biological target: T5, Protein RecA (Mycobacterium tuberculosis, UniProt P9WHJ3); experiment: Fluorescence Cell-Free Homogeneous Dose Retest to Identify Inhibitors of RecA-Intein Splicing Activity. [Related pubchem assays (depositor defined):AID2097, AID2223, AID489010, AID492950]; format: functional
# T5 sequence (P9WHJ3 whole entry): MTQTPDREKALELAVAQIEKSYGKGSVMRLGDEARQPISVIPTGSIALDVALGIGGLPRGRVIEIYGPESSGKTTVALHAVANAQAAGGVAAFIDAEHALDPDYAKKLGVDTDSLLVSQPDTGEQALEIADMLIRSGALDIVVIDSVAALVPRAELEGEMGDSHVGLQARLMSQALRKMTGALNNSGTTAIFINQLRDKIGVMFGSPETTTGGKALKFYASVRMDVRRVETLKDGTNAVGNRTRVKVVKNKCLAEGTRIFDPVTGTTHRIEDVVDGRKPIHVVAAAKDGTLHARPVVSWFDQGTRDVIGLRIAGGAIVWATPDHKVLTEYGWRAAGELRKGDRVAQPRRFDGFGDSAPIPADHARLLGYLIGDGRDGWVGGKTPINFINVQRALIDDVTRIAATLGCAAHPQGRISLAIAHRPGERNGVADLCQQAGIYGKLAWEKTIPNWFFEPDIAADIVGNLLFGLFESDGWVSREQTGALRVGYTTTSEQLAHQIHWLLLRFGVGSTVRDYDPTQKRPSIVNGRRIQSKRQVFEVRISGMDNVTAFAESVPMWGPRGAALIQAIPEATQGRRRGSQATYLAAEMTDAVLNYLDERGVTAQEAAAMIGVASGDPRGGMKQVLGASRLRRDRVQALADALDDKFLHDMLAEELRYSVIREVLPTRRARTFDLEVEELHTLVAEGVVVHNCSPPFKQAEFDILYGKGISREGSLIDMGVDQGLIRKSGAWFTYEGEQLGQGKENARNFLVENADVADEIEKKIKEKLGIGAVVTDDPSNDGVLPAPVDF
# [18] = Luminescence Cell-Based Dose Response HTS to Identify Activators of Luciferase Translation or Activity in H4 […] Cells. [Related pubchem assays: 1829 (Project Summary), 1814 (Primary HTS)]; format: functional
# [19] = tested on: H4; experiment: Luminescence Cell-Based Dose Response HTS to Identify Activators of 5'UTR Stem-Loop Driven Prion Protein mRNA Translation in H4 Neuroglioblastoma Cells. [Related pubchem assays: 1829 (Project Summary), 1814 (Primary HTS)]; format: functional; settings: Homo sapiens
# [20] = HEp-2 cell cytotoxicity, dose response, cytotoxicity control for RSV inhibitor project, HTS (AID 2410); format: functional; settings: human respiratory syncytial virus
smiles,measurement,setting,value
Cc1cc(C(=O)N/N=C/c2cc(Br)cc(Br)c2OC(=O)c2cccc(F)c2)[nH]n1,EC50,[1],8.5 µM (active)
same,EC50,[2],8.33 µM (active)
same,EC50,[3],7.49 µM (active)
same,EC50,[4],1.01 µM (active)
same,EC50,[5],> 60 µM (inconclusive)
same,AC50,[6],3.46 µM (active)
same,AC50,[7],2.33 µM (active)
CCOC(=O)C1=C(C)NC(=O)NC1,EC50,[8],> 112 µM (not active)
same,EC50,[9],5.87 µM (active)
CCN(CC)C(=O)c1sc2nc(-c3cccs3)cc(-c3cccs3)c2c1N,EC50,[10],> 300 µM (not active)
same,EC50,[11],> 300 µM (not active)
COc1ccc(NC(=O)c2ccc(OC(F)F)cc2)cc1Cl,EC50,[8],3.3 µM (active)
same,EC50,[9],4.52 µM (active)
CCn1c2ccccc2c2cc(NC(=O)c3cccc([N+](=O)[O-])c3)ccc21,AC50,[6],1.62 µM (active)
COc1ccc(-n2c(Cc3cccn3C)nnc2SCC(=O)Nc2cccc(Cl)c2)cc1,AC50,[6],125 µM (active)
Cc1ccc(-c2nc(/C=N/c3ccc(O)cc3)c(O)o2)cc1,EC50,[10],> 300 µM (not active)
same,EC50,[11],> 300 µM (not active)
COc1cccc(-c2ccc([C@H]3[C@H](CO)N4CCCCN(CC5CC5)C[C@@H]34)cc2)c1,AC50,[12],5.84 µM (active)
Fc1ccc(NC(S)=Nc2ccc(Br)cc2)cc1,IC50,[13],> 66 µM (inactive)
same,IC50,[14],> 66 µM (inactive)
Cc1occc1C(=O)Nc1cc(C(C)(C)C)on1,EC50,[8],2.78 µM (active)
same,EC50,[9],3.46 µM (active)
CCOC(=O)c1[nH]nc(-c2c(O)cc(C)cc2O)c1-c1csc(C)n1,EC50,[8],> 112 µM (not active)
same,EC50,[9],> 112 µM (not active)
O=C1CCn2c1c(O)c1ccccc1c2=O,IC50,[13],> 66 µM (inactive)
same,IC50,[14],43.6 µM (inactive)
Cc1ccc2oc(-c3ccc(NC(=O)c4cccnc4)cc3)nc2c1,EC50,[8],> 112 µM (not active)
same,EC50,[9],> 112 µM (not active)
same,AC50,[7],7.77 µM (active)
CCCCOc1c(Br)cc(/C=N/O)cc1OCC,EC50,[10],> 300 µM (not active)
same,EC50,[11],> 300 µM (not active)
COc1ccc(-c2[nH]ncc2N=Nc2ccccc2)cc1,AC50,[6],3.81 µM (active)
CS(=O)(=O)N1[C@H](C#N)[C@H](c2ccccc2-c2ccccc2)[C@H]1CO,AC50,[12],> 36 µM (inactive)
C=C1[C@@H](O)[C@@H]2O[C@]3(CC[C@H](/C=C/[C@@H](C)[C@@H]4CC(C)=CC5(O[C@H](C[C@@](C)(O)C(=O)OC)CC[C@H]5O)O4)O3)CC[C@H]2O[C@@H]1[C@@H](O)C[C@H](C)[C@H]1OC2(CCCCO2)CC[C@H]1C (stereo partly drawn),AC50,[6],< 0.16 µM (inconclusive)
same,AC50,[7],< 0.195 µM (active)
COc1ccc(NS(=O)(=O)c2ccc(F)c(Cl)c2)cn1,IC50,[13],46.2 µM (inactive)
same,IC50,[14],24.2 µM (inactive)
COc1cccc(-c2ccc3c(c2)[C@H]2[C@H](CCN2C(=O)C2CCCC2)[C@H](CO)N3)c1,AC50,[12],7.06 µM (active)
COc1ccc(C2=NN(c3ccccc3)C(=O)/C2=C\c2ccc(O)c(OC)c2)cc1,IC50,[15],42.4 µM (active)
same,AC50,[16],2.29 µM (active)
same,EC50,[17],1.42 µM (active)
COc1ccccc1/C=N/Nc1nccnc1Cl,EC50,[8],12.3 µM (active)
same,EC50,[9],5.37 µM (active)
C=CCN1C(=O)/C(=C/C=C2/N(CC)c3ccc(S(=O)(=O)N(C)C)cc3N2CC)SC1=S,IC50,[15],> 100 µM (active)
Nc1ccc2c(c1)C/C(=C/c1ccco1)C2=O,EC50,[10],23 µM (active)
same,EC50,[11],14.3 µM (active)
O=C(CSc1n[nH]c2c3ccccc3nc-2n1)NCc1ccco1,IC50,[13],> 66 µM (inactive)
same,IC50,[14],> 66 µM (inactive)
CC1=CC(C)(C)N2C(=O)C3(C(C#N)=C(N)OC4=C3C(=O)CC(C)(C)C4)c3c(C)c(C)cc1c32 (stereo not drawn),EC50,[10],> 300 µM (not active)
same,EC50,[11],> 300 µM (not active)
COC(=O)c1ccccc1-n1c(CCC(=O)O)ccc1-c1ccc(F)cc1,EC50,[10],> 300 µM (not active)
same,EC50,[11],> 300 µM (not active)
Cc1nn(CC(C)C)c(Cl)c1C(=O)NC1CCC(C)CC1 (stereo not drawn),EC50,[18],0.258 µM (active)
same,EC50,[19],1.19 µM (active)
CCC(=O)Nc1ccc2c(c1)OC[C@H](C)N(Cc1ccccn1)C[C@H](C)[C@H](OC)CN(C)C2=O,AC50,[12],15.3 µM (active)
Cc1ccnc(Nc2nc(-c3ccc(O)cc3O)cs2)c1,CC50,[20],25.8 µM (active)
same,AC50,[6],12.3 µM (active)
O=C(N/N=C/c1sc(=O)n(-c2ccccc2)c1Cl)c1ccccc1,EC50,[19],34.9 µM (inconclusive)
